This passage reports IC50 results from PMC5935545 (Molecular cell, 2018).

Assay [1] deals with EZH2 Y646N (PRC2/EZH2^Y646N) (Homo sapiens, UniProt Q15910, Y641N). The format is biochemical.
In a further assay the target is EZH2 (PRC2) (Homo sapiens, UniProt Q15910). Format: biochemical.
Sequence of EZH2 (PRC2) (Q15910 whole entry): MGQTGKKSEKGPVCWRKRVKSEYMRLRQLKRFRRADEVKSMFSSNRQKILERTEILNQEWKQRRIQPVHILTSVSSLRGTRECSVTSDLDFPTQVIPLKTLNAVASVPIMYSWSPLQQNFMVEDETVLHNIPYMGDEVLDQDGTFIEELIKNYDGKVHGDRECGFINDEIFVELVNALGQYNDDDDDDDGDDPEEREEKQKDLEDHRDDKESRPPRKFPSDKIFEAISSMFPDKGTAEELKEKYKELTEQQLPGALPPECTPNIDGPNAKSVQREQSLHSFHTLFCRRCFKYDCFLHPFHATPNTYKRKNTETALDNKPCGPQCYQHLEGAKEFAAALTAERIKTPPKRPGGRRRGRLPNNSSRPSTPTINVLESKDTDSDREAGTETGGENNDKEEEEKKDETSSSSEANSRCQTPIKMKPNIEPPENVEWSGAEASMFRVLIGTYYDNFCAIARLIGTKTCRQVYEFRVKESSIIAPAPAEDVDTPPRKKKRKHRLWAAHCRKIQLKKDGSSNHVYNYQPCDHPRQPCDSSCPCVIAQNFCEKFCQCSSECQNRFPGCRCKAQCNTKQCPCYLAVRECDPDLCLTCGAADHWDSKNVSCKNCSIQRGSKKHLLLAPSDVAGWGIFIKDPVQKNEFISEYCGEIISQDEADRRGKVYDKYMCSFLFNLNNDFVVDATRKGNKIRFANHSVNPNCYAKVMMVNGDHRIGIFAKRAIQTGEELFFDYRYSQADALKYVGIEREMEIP
Sequence of EZH2 (PRC2) (O75530 2-441 partner): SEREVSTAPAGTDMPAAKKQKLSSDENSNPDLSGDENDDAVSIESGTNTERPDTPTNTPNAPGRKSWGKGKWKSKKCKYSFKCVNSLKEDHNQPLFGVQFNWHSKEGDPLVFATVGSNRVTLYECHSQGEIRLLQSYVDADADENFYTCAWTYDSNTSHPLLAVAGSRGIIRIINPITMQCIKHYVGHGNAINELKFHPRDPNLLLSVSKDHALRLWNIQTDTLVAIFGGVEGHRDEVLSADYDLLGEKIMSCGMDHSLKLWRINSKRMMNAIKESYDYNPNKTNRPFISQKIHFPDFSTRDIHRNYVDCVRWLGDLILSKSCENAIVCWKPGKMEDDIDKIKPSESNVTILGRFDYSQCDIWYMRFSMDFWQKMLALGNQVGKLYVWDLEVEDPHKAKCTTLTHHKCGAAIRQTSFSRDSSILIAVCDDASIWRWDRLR
Sequence of EZH2 (PRC2) (Q15022 whole entry partner): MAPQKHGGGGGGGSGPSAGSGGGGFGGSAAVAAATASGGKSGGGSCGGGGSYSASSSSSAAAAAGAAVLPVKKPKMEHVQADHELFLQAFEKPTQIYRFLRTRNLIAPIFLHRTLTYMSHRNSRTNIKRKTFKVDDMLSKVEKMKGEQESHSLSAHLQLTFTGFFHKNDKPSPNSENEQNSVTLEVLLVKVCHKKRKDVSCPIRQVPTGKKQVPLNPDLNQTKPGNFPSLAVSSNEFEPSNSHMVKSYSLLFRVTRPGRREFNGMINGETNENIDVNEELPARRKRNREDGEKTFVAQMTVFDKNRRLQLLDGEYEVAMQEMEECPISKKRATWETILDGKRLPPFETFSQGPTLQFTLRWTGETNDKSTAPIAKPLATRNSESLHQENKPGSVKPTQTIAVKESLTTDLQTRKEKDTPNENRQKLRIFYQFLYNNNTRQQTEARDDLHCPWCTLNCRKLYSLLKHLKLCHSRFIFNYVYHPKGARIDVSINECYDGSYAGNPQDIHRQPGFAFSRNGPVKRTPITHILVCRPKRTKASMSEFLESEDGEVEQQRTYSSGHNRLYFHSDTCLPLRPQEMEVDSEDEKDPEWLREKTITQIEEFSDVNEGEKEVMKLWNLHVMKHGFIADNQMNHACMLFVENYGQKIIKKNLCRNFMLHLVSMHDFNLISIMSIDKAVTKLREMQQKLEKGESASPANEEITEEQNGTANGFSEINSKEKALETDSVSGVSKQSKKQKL
Sequence of EZH2 (PRC2) (Q09028 2-425 partner): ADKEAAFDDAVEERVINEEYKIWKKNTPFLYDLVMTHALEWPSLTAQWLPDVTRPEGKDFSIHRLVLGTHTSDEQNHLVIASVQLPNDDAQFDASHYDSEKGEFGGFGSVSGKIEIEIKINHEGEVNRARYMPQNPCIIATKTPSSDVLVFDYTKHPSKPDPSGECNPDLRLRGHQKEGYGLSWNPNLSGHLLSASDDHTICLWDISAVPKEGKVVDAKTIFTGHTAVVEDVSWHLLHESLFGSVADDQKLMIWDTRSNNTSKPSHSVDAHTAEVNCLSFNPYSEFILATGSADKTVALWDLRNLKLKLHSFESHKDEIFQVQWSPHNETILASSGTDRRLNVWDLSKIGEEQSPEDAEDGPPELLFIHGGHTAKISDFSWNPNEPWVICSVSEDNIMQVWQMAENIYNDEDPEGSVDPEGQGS

Sequence of EZH2 Y646N (PRC2/EZH2^Y646N) (Q15910 whole entry Y641N): as the sequence (Q15910 whole entry) above, with Y641N counted along it
Sequence of EZH2 Y646N (PRC2/EZH2^Y646N) (O75530 2-441 partner): as the sequence (O75530 2-441 partner) above
Sequence of EZH2 Y646N (PRC2/EZH2^Y646N) (Q15022 whole entry partner): as the sequence (Q15022 whole entry partner) above
Sequence of EZH2 Y646N (PRC2/EZH2^Y646N) (Q09028 2-425 partner): as the sequence (Q09028 2-425 partner) above

Take `COC(=O)c1ccc(NC(=O)c2ccc(NC(=O)c3ccc([N+](=O)[O-])c(OCc4ccccc4)n3)c(OCc3ccccc3)n2)c(OCCCN)n1` [ADH-61]: the IC50 (as a rule, the concentration that inhibits the measured activity by half) amounted to 891 ± 96 nM in assay [1] and 766 ± 710 nM against EZH2 (PRC2).
